From patent publication US7186784B2, “Phosphorus-containing carboxylic acid derivatives process for preparations thereof and flame retardant” (NOF Corporation, priority 2001, dated 2007)

Legend:
[1] = Storage stability test in blend with epoxy resin YDPN 638; settings: 1:1 by weight with epoxy resin YDPN 638, room temperature; for Stability Test: 30 days, viscosity increase observed visually
Source text: Then a visual observation was made about an increase in the viscosity thereof.

[2] = Dissolution on preparing the resin composition; type: physicochemical; settings: 20.0 parts M-Acid with Epicote 828, CIC acid derivative and Nofcure-LC-1, mixed in a vial
Source text: An attempt was made to prepare a resin composition by mixing and agitating in a vial, 5.06 parts by weight of Epicote 828, 4.94 parts by weight of a derivative from CIC acid by n-propylvinyl ether, 20.0 parts by weight of unmodified M-Acid and 0.21 parts by weight of Nofcure-LC-1. However, the M-Acid was not dissolved, thereby forming non-homogeneous and opaque suspension.

## CCOP(=O)(CC(CC(=O)O)C(=O)O)OCC (stereo not shown) [DEHP-ItaA]
[1]
  Stability Test: time before hardening (figure in parentheses): 5 min
  Stability Test: Hardened

## O=C(O)CC(CP1(=O)Oc2ccccc2-c2ccccc21)C(=O)O (stereo not shown) [M-Acid]
[2]
  dissolution in resin composition: not dissolved

## O=C(O)CCC(CC(=O)O)(C(=O)O)P(=O)(O)O (stereo not shown) [PBTC, 2-phosphonobutane-1,2,4-tricarboxylic acid]
[1]
  Stability Test: time before hardening (figure in parentheses): 15 min
  Stability Test: Hardened

## O=C(O)CC(CP(=O)(Oc1ccccc1)Oc1ccccc1)C(=O)O (stereo not shown) [Ref. Example. 7]
[1]
  Stability Test: time before hardening (figure in parentheses): 5 min
  Stability Test: Hardened
